{"source": "paper PMC7993727", "about": "“Discovery of a novel AR/HDAC6 dual inhibitor for prostate cancer treatment” (Aging (Albany NY), 2021)", "key": {"[1]": {"test_system": "HEK293 cells", "test": "cell proliferation assay", "assay_type": "cell-based", "conditions": "Homo sapiens, HEK293, 72 h, read-out: IC50 values proliferation HEK293"}, "[2]": {"test_system": "AR-LBD", "test": "AR competitive binding, fluorescence polarization", "method": "To evaluate the AR inhibition activities of Zeta55, an AR luciferase activity assay was performed (Table 1 and Supplementary Figure 1). […]. To evaluate the HDAC inhibition activities of Zeta55, fluorescent-based HDAC assays were performed (Table 1 and Supplementary Figure 3). […]. Both compounds seem ineffective against HDAC4.\nSupplementary Figure 1. […]\npolarization assay. Test compounds were incubated with recombinant AR-LBD (GST) and the fluorescence polarization (mP) was measured\nat an excitation wavelength of 485 nm and emission wavelength of 535 nm. […]"}, "[3]": {"biological_target": "T1, HDAC6 (Homo sapiens, UniProt Q9UBN7)", "T1 sequence (Q9UBN7 1-1215)": "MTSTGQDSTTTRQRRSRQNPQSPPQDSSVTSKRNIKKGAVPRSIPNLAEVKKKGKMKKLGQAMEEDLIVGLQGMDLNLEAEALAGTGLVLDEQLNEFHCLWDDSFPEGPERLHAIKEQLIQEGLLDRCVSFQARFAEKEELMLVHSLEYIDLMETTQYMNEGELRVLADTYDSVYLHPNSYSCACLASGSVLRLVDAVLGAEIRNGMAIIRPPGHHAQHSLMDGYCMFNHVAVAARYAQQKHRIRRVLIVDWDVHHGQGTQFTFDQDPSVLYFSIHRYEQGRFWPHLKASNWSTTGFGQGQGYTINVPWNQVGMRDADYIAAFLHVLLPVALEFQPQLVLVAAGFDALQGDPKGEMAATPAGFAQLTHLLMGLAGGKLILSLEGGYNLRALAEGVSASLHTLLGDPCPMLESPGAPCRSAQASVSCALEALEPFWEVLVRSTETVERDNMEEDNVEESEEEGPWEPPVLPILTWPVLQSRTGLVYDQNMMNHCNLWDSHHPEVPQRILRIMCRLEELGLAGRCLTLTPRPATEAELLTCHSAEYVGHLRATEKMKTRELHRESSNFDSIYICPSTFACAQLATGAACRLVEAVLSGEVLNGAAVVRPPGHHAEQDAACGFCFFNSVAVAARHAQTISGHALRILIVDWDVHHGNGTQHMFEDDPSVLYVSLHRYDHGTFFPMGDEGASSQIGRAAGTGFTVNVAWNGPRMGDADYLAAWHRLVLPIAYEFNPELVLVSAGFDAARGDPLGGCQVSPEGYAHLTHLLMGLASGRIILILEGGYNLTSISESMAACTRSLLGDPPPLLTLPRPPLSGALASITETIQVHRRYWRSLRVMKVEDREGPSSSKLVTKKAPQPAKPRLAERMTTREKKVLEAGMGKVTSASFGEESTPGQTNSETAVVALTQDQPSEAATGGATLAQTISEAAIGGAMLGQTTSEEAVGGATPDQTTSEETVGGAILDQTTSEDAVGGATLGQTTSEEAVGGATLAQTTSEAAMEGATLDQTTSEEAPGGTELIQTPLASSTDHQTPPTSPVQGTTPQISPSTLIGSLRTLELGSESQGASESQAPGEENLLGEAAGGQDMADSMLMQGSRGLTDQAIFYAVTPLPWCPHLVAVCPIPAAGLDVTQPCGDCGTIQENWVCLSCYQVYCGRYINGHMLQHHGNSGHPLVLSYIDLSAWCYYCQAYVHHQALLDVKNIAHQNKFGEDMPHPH", "test": "acetylation of α-tubulin (HDAC6 substrate) in VCaP cells, Western blot", "assay_type": "cell-based", "conditions": "24 hours", "method": "(§1) RNA expression level was analyzed by qRT-PCR and protein expression level was analyzed by Western blot. […] (I) Representative immunofluorescence microscopic images of VCaP cells for checking the subcellular localization of AR.\n(§2) To evaluate the HDAC6 inhibition ability of Zeta55 in VCaP cells, the acetylation status of α-tubulin protein (a HDAC6 substrate) was assessed using western blot. […] We assessed the protein level of AR in VCaP cells.\n(§3) The whole-cell extracts were prepared in lysis buffer with a protease inhibitor cocktail (Bimake), while the xenograft tissue extracts were prepared in 0.5% Nonidet P 40 Substitute solution (Biosharp) with cocktail protease inhibitor (Bimake). Each sample containing 30 μg of total protein was loaded onto 10% SDS-PAGE and electrotransferred onto polyvinylidene fluoride membranes. The membranes were blocked with 5% skimmed milk in PBST at room temperature for 2 hours and incubated with primary antibodies at 4° C overnight. After the membranes were washed with PBST three times, they were incubated with horseradish peroxidase-conjugated anti-rabbit or anti-mouse secondary antibody at room temperature for 1 hour. Chemiluminescent detection was performed with WesternBright ECL (Advansta). The immunoblots were visualized using the FluorChem FC3 system (ProteinSimple)."}, "[4]": {"biological_target": "T2, AR (Homo sapiens, UniProt P10275)", "T2 construct": "The VCaP cells were transfected with MMTV-LUC for 24 hours; endogenous in cells; host or cells: VCaP", "T2 sequence (P10275 1-920)": "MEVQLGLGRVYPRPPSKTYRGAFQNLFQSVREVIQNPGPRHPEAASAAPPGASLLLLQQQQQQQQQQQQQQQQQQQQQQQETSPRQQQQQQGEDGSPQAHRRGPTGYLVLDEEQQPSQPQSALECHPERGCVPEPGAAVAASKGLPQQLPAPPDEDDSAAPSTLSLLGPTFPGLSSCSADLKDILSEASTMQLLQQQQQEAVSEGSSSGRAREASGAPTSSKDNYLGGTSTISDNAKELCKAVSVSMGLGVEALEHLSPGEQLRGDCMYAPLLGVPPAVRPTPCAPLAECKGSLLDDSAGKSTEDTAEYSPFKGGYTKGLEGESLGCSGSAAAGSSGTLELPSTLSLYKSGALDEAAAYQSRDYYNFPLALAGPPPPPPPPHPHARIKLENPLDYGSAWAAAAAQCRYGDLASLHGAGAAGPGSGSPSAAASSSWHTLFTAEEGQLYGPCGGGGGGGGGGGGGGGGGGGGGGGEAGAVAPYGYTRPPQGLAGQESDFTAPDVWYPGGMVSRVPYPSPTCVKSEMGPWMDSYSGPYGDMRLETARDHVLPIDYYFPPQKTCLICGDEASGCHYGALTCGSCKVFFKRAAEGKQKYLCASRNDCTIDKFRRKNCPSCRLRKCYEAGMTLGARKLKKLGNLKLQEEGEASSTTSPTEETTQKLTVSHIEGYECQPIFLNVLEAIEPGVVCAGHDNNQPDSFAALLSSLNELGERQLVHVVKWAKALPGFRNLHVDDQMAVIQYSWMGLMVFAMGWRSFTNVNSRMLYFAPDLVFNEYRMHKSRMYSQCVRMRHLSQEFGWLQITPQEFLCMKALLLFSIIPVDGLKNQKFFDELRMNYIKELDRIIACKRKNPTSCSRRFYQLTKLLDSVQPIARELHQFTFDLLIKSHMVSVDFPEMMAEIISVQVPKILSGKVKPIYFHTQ", "assay_type": "cell-based", "conditions": "VCaP cells, 24 hours", "method": "as §1, §2, §3"}, "[5]": {"biological_target": "T2, AR", "assay_type": "cell-based", "conditions": "VCaP cells, 10% FBS, 10 μM, 24 hours", "procedure": "Cells were fixed with 4% paraformaldehyde for 15 minutes at room temperature, permeabilized with immunostaining permeate for 10 minutes and blocked with 5% BSA containing 1% Tween-20 for 1 hour. After overnight Immunostain with AR Rabbit monoclonal antibody (1:400;CST,5153S) at 4° C, a Cy3 conjugated Goat Anti-Rabbit IgG (1:300; Servicebio, GB21303) reacted for 1 hour. DAPI (4’,6-diamidine-2’-phenylindole, Servicebio, G1012) stained the nuclear to bule for 10 minutes in the dark. Washing three times with PBS between each step. Immunofluorescence images were acquired by fluorescence microscopy using a NIKON ECLIPSE CI microscope (Nikon Corporation; magnification)."}}, "data": [{"compound": "N#Cc1ccc(N2C(=O)C3(CCC3)N(c3ccc(C(=O)NO)c(F)c3)C2=S)cc1C(F)(F)F", "note": "[Zeta55]", "values": [{"measurement": "IC50", "setting": "[1]", "result": "> 50", "unit": "µM"}, {"measurement": "AR binding affinity relative to MDV3100", "setting": "[2]", "result": 60, "unit": "%"}, {"measurement": "α-tubulin acetylation", "setting": "[3]", "result": "enhanced α-tubulin acetylation in a dose-dependent manner"}, {"measurement": "AR protein level", "setting": "[4]", "result": "decreased AR protein level in a dose-dependent manner"}, {"measurement": "subcellular localization of AR", "setting": "[5]", "result": "distributed in both cytoplasm and nucleus"}]}]}
